Assay results as given in patent US20060099568A1, “Signals and molecular species involved in senescence” (priority 2002, published 2006).

Columns and labels:
PKA = assay: measurement of protein kinase A activity (Kemptide, [γ-32P]ATP); type: cell-based, human; conditions: 30 μg/ml LPA
Procedure: (§1) FIG. 10 represents LPA-dependent PKA activity and CREB phosphorylation in presenescent and near-senescent fibroblasts. Subconfluent presenescent (passage 8, Pa 8) and near-senescent (passage 24, Pa 24) fibroblasts were serum-starved for 2 days and treated with 30 μg/ml LPA for the indicated times. The PKA activity (A) was determined in cell homogenates with kemptide and [γ^32P]ATP as substrates. The radioactivity incorporated into kemptide was measured by a beta-counter and the enzyme activity was calculated as pmol/min/mg protein. The data represents an average of triplicate experiments. The level of phospho-CREB (B) was measured by Western blot analysis using an anti-phospho-CREB antibody.
LPA-treated cells were harvested and homogenized in ice-cold homogenization buffer containing 0.25 M sucrose, 10 mM Tris-HCl, pH 7.5, 10 MM MgCl2, 2 mM EGTA, and protease inhibitors. Homogenates were centrifuged at 20,000×g at 4° C. for 20 min. Protein kinase A assays were performed as described previously (Yang et al., 1999). […] The paper was washed once with 0.75% phosphoric acid and the radioactivity incorporated into Kemptide was quantified on a scintillation counter (Model Tri-Carb 1600 CA, Packard Instrument Company). […] PKI-inhibitable kinase activity was calculated and the data were reported as percent of total PKA activity. […]

Phospholipase C (PLC) = conditions: near-senescent cells (passage 23) vs presenescent (passage 6); PDGF 50 ng/ml, LPA 1 μg/ml, 20 min, 20 mM LiCl
CREB = CREB phosphorylation, Western blot with anti-phospho-CREB antibody; type: cell-based, human; conditions: near-senescent fibroblasts; 30 μg/ml LPA
Procedure: as §1
The expression levels of signaling proteins were examined by Western blot analysis, as described previously (Yeo et al., 2000a). […] The protein concentrations of the lysates were determined using a BCA protein assay kit, as described by the protocol supplied by the manufacturer. […] To examine the level of phospholipase D 1/2, the immunoprecipitated protein obtained using 10 μl of anti-phospholipase D 1 anti-sera (Box45, ESTP4) was analyzed by Western blot against polyclonal anti-phospholipase D 1 antibodies (1:20 dilution of NC STP4 anti-serum).

phospholipase D (PLD) = assay: phosphatidylbutanol formation as an indication of phospholipase D activity; type: cell-based, human; conditions: passage 24 near-senescent cells vs presenescent; 0.5% 1-butanol, 20 min
Procedure: Subconfluent presenescent (passage 8: Pa 8) and near-senescent (passage 24: Pa 24) cells were serum-starved and labeled with [^3H]myristic acid overnight. […] A representative experiment of three performed in duplicate is presented.
Quiescent cells were labeled overnight with [^3H]myristic acid (1 μCi/ml) and then washed with PBS. Phosphatidylbutanol formation was measured as described by Yeo et al. (1994). Cells were preincubated with 0.5% (v/v) 1-butanol for 15 min and then treated with agonists for 20 min in the presence of 0.5% 1-butanol. Total lipids were extracted and separated by thin layer chromatography. The band of phosphatidylbutanol was scraped off the plates and its radioactivity was counted in a liquid scintillation cocktail.

ERK1 and ERK2 = assay: ERK activation, phospho-ERK Western blot; type: cell-based, human
Procedure: Serum-starved presenescent (passage 10, Pa 10) and near-senescent (passage 29, Pa 29) fibroblasts were treated with 30 μg/ml LPA for the indicated times. The level of phospho-ERK in the cytosolic fraction from each cell, as an indication of ERK activation, was measured by Western blot analysis employing anti-phospho-ERK antibody.
The expression levels of signaling proteins were examined by Western blot analysis, as described previously (Yeo et al., 2000a). Total cell lysates were prepared in a lysis buffer containing 50 mM Tris-HCl, pH 7.5, containing 150 mM NaCl, 2 mM EDTA, 1 mM EGTA, 1 mM Na3VO4, 10 mM NaF, 1 mM DTT, 1 mM PMSF, 25 μg/ml leupeptin, 25 μg/ml aprotinin, 5 mM benzamidine, and 1% Nonidet P-40. The protein concentrations of the lysates were determined using a BCA protein assay kit, as described by the protocol supplied by the manufacturer. Cell lysates containing equal amounts of protein were resolved by SDS-polyacrylamide gel electrophoresis and transferred onto Immobilon PVDF membranes. […] To examine the level of phospholipase D 1/2, the immunoprecipitated protein obtained using 10 μl of anti-phospholipase D 1 anti-sera (Box45, ESTP4) was analyzed by Western blot against polyclonal anti-phospholipase D 1 antibodies (1:20 dilution of NC STP4 anti-serum).

## lysophosphatidic acid [LPA]
PKA; near-senescent cells
  PKA activity: increased
PKA; presenescent cells
  PKA activity: decreased
Phospholipase C (PLC)
  agonist-stimulated inositol phosphates (IPs) production: enhanced
CREB
  CREB phosphorylation: correlated well with cAMP accumulation
Phospholipase D (PLD)
  reduction of PLD activity: ca. 20%
ERK1 and ERK2; near-senescent HDF (passage 29), 30 μg/ml LPA
  level of phospho-ERK: did not increase further
ERK1 and ERK2; presenescent HDF (passage 10), 30 μg/ml LPA for 10-30 min
  ERK1 and ERK2 activation (phospho-ERK): stimulated
